Values after ≈ are worked out from the molar mass of the structure shown. Active and inactive are the calls of the source. No cut-off for these calls is given here.
How the values were obtained:
[1] = Oral bioavailability in rat at 2.5 mg/kg; format: ADME, organism-based; conditions: in vivo
Heat shock protein HSP90 [2] = target: T1, Heat shock protein HSP90 (Homo sapiens, UniProt P07900+P08238); experiment: Displacement of biotinylated geldanamycin from human His-tagged Hsp90 by TR-FRET assay; format: protein assay
[3] = Half life in rat at 2.5 mg/kg, iv; format: ADME, organism-based; set-up: dose 2.5 mg/kg, route intravenous; conditions: in vivo
[4] = Clearance in rat at 2.5 mg/kg, iv; format: ADME, organism-based; set-up: dose 2.5 mg/kg, route intravenous; conditions: in vivo
Heat shock protein HSP90 [5] = target: T1, Heat shock protein HSP90; experiment: Inhibition of Hsp90 in human NCI-N87 cells assessed as Her2 degradation after 24 hrs by Western blot analysis; format: cell-based
[6] = Apparent permeability across MDCK cells; format: ADME, cell-based, Canis lupus familiaris; conditions: dog
Rattus norvegicus [7] = experiment: Dose normalized AUC in rat at 2.5 mg/kg, iv; format: ADME, organism-based; set-up: dose 2.5 mg/kg, route intravenous; conditions: in vivo
[8] = Half life in rat at 5 mg/kg, iv; format: ADME, organism-based; set-up: dose 5 mg/kg, route intravenous; conditions: in vivo
[9] = Oral bioavailability in rat at 5 mg/kg; format: ADME, organism-based; conditions: in vivo
[10] = Clearance in rat at 5 mg/kg, iv; format: ADME, organism-based; set-up: dose 5 mg/kg, route intravenous; conditions: in vivo
Rattus norvegicus [11] = experiment: Dose normalized AUC in rat at 5 mg/kg, iv; format: ADME, organism-based; set-up: dose 5 mg/kg, route intravenous; conditions: in vivo
Heat shock protein HSP90 [12] = target: T1, Heat shock protein HSP90; experiment: Inhibition of Hsp90 in human A549 cells assessed as Raf1 degradation after 24 hrs by Western blot analysis; format: cell-based
[13] = Drug metabolism in human liver microsomes at 15 uM after 30 mins; format: ADME, Microsome; conditions: read-out: Drug metabolism
[14] = Kinetic solubility of the compound; format: physicochemical; conditions: read-out: Kinetic_solubility
[15] = Clearance in iv dosed rat; format: ADME, organism-based; conditions: in vivo
[16] = Oral bioavailability in rat; format: ADME, organism-based; conditions: in vivo
[17] = Half life in iv dosed rat; format: ADME, organism-based; conditions: in vivo
Rattus norvegicus [18] = experiment: Dose normalized AUC in iv dosed rat; format: ADME, organism-based; conditions: in vivo
Mus musculus [19] = experiment: Inhibition of Hsp90 in human COLO205 cells xenografted in mouse assessed as Her2 degradation at 100 mg/kg administered QD for 2 days measured 8 hrs post-last dose; format: functional; conditions: COLO 205
Mus musculus [20] = experiment: Inhibition of Hsp90 in human COLO205 cells xenografted in mouse assessed as Raf1 degradation at 100 mg/kg administered QD for 2 days measured 8 hrs post-last dose; format: functional; conditions: COLO 205
[21] = Drug metabolism in mouse liver microsomes at 15 uM after 30 mins; format: ADME, Microsome; conditions: read-out: Drug metabolism

| SMILES | bioavailability [1] | IC50 (Heat shock protein HSP90 [2]) | half-life [3] | clearance [4] | IC50 (Heat shock protein HSP90 [5]) | Papp [6] | AUC/dose (Rattus norvegicus [7]) | IC50 (Heat shock protein HSP90 [12]) | other results |
| --- | --- | --- | --- | --- | --- | --- | --- | --- | --- |
| Cc1cc(C(N)=O)c(NC2CCCC2)cc1C(=O)NC1CC2CCC(C1)N2c1ccc(C(=O)C2CC2)cn1 (stereo not given) | 28% | 27 nM | 66 min | 14.5 mL/min/kg | 316 nM | 14.6 ×10⁻⁶ cm/s | 2.26 µM·kg·h/mg | – | – |
| CC[C@H](C)Nc1cc(C(=O)NC2CC3CCC(C2)N3c2ccc(C(=O)C3CC3)cn2)c(C)cc1C(N)=O (stereo not given in full) | 20% | – | 60 min | 38.5 mL/min/kg | 252 nM | 24 ×10⁻⁶ cm/s | 0.87 µM·kg·h/mg | – | – |
| CCC(CC)Nc1cc(C(=O)NC2CC3CCC(C2)N3c2ccc(C(C)=O)cn2)c(C)cc1C(N)=O (stereo not given) | – | 28 nM | – | – | 44 nM | – | – | – | half-life [8]: 102 min; bioavailability [9]: 4%; clearance [10]: 51.8 mL/min/kg; AUC/dose (Rattus norvegicus [11]): 0.6 µM·kg·h/mg |
| Cc1cc(C(=O)NC2CC3CCC(C2)N3c2ccc(C(=O)NCc3ccccc3)cn2)c(C)cc1C(N)=O (stereo not given) | – | – | – | – | – | 3 ×10⁻⁶ cm/s | – | > 10000 nM | – |
| NC(=O)c1ccc(C(=O)NC2CC3CCC(C2)N3c2ccc(C(=O)NCc3ccccc3)cn2)cc1 (stereo not given) | – | 445 nM | – | – | – | 0.06 ×10⁻⁶ cm/s | – | 5200 nM | – |
| Cc1cc(C(N)=O)ccc1C(=O)NC1CC2CCC(C1)N2c1ccc(C(=O)NCc2ccccc2)cn1 (stereo not given) | – | 598 nM | – | – | – | 0.21 ×10⁻⁶ cm/s | – | 2700 nM | – |
| NC(=O)c1ccc(C(=O)NC2CC3CCC(C2)N3c2ccc(C(=O)C3CC3)cn2)cc1NCC1CC1 (stereo not given) | 41% | 120 nM | 1320 min | 8.43 mL/min/kg | 494 nM | 50.3 ×10⁻⁶ cm/s | 3.7 µM·kg·h/mg | – | – |
| COc1cccc(C(=O)NC2CC3CCC(C2)N3c2ccc(C(=O)N[C@@H](C)c3ccccc3)cn2)c1C (stereo not given in full) | – | 126 nM | – | – | – | 38 ×10⁻⁶ cm/s | – | 421 nM | metabolised at 0.5 h, 15 µM [13]: 68%; solubility kinetic [14]: 2.2 µM (≈ 1.1 µg/mL) |
| COc1cccc(C(=O)NC2CC3CCC(C2)N3c2ccc(C(=O)NCc3ccc(N4CCN(C)CC4)cc3)cn2)c1C (stereo not given) | – | 108 nM | – | – | – | 7.4 ×10⁻⁶ cm/s | – | 579 nM | clearance [15]: 112 mL/min/kg; bioavailability [16]: 28%; half-life [17]: 390 min; AUC/dose (Rattus norvegicus [18]): 0.23 µM·kg·h/mg; metabolised at 0.5 h, 15 µM [13]: 28%; solubility kinetic [14]: 285 µM (≈ 166 µg/mL) |
| COc1cccc(C(=O)NC2CC3CCC(C2)N3c2ccc(C(=O)N[C@H](C)c3ccccc3)cn2)c1C (stereo not given in full) | – | 7450 nM | – | – | – | – | – | > 10000 nM | – |
| CCCNc1cc(C(=O)NC2CC3CCC(C2)N3c2ccc(C(=O)C3CC3)cn2)c(C)cc1C(N)=O (stereo not given) | – | 24 nM | – | – | 1122 nM | 23.4 ×10⁻⁶ cm/s | – | – | – |
| CC(=O)c1ccc(N2C3CCC2CC(NC(=O)c2ccc(C(N)=O)c(NCC4CC4)c2)C3)nc1 (stereo not given) | 42% | 40 nM | 420 min | 71.5 mL/min/kg | 182 nM | 44.2 ×10⁻⁶ cm/s | 0.5 µM·kg·h/mg | – | – |
| C[C@H](NC(=O)c1ccc(N2C3CCC2CC(NC(=O)c2ccc(C(N)=O)c(NC4CCC4)c2)C3)nc1)c1ccc(N2CCN(C)CC2)cc1 (stereo not given in full) | – | 160 nM | – | – | – | 0.46 ×10⁻⁶ cm/s | – | 59 nM | – |
| O=C(NCc1ccccc1)c1ccc(N2C3CCC2CC(NC(=O)c2ccc(CO)cc2)C3)nc1 (stereo not given) | – | 322 nM | – | – | – | 2.5 ×10⁻⁶ cm/s | – | 5400 nM | – |
| CCC(CC)Nc1cc(C(=O)NC2CC3CCC(C2)N3c2ccc(C(=O)C3CC3)cn2)c(C)cc1C(N)=O (stereo not given) | 29% | 25 nM | 108 min | 30.8 mL/min/kg | 82 nM | 14.3 ×10⁻⁶ cm/s | 1.04 µM·kg·h/mg | – | – |
| CO[C@H]1/C=C\C=C(/C)C(=O)NC2=CC(=O)C(NCCN(C)C)=C(C[C@@H](C)C[C@H](OC)[C@H](O)[C@@H](C)/C=C(\C)[C@@H]1OC(N)=O)C2=O [ALVESPIMYCIN] | – | – | – | – | – | – | – | – | inhibition (Mus musculus [19]): inactive; inhibition in vivo at 100 mg/kg (Mus musculus [20]): 84% |
| C[C@H](NC(=O)c1ccc(N2C3CCC2CC(NC(=O)c2ccc(C(N)=O)c(Nc4ccccc4)c2)C3)nc1)c1ccc(N2CCN(C)CC2)cc1 (stereo not given in full) | – | 260 nM | – | – | – | 0.32 ×10⁻⁶ cm/s | – | 105 nM | – |
| C[C@H](NC(=O)c1ccc(N2C3CCC2CC(NC(=O)c2ccc(C(N)=O)c(NCC4CC4)c2)C3)nc1)c1ccc(N2CCN(C)CC2)cc1 (stereo not given in full) | – | 80 nM | – | – | – | 0.15 ×10⁻⁶ cm/s | – | 42 nM | clearance [15]: 157 mL/min/kg |
| CC(C)C(=O)c1ccc(N2C3CCC2CC(NC(=O)c2ccc(C(N)=O)c(NCC4CC4)c2)C3)nc1 (stereo not given) | – | 1140 nM | – | – | 1610 nM | – | – | – | – |
| NC(=O)c1ccc(C(=O)NC2CC3CCC(C2)N3c2ccc(C(=O)NC3CCCC3)cn2)cc1NCC1CC1 (stereo not given) | 0% | 89 nM | 36 min | 63.5 mL/min/kg | 351 nM | 4.8 ×10⁻⁶ cm/s | 0.49 µM·kg·h/mg | – | – |
| CCNC(=O)c1ccc(N2C3CCC2CC(NC(=O)c2ccc(C(N)=O)c(NCC4CC4)c2)C3)nc1 (stereo not given) | – | 104 nM | – | – | 2170 nM | 32.4 ×10⁻⁶ cm/s | – | – | – |
| Cc1cc(CO)ccc1C(=O)NC1CC2CCC(C1)N2c1ccc(C(=O)NCc2ccccc2)cn1 (stereo not given) | – | 128 nM | – | – | – | 3 ×10⁻⁶ cm/s | – | 1900 nM | – |
| Cc1cc(C(N)=O)c(NCC2CC2)cc1C(=O)NC1CC2CCC(C1)N2c1ccc(C(=O)C2CC2)cn1 (stereo not given) | 51% | 25 nM | 54 min | 19.7 mL/min/kg | 245 nM | 22.3 ×10⁻⁶ cm/s | 1.7 µM·kg·h/mg | – | – |
| Cc1cc(C(=O)NC2CC3CCC(C2)N3c2ccc(C(=O)N[C@@H](C)c3ccc(N4CCN(C)CC4)cc3)cn2)c(C)cc1C(N)=O (stereo not given in full) | – | 53 nM | – | – | – | < 0.01 ×10⁻⁶ cm/s | – | 2900 nM | – |
| COc1cccc(C(=O)NC2CC3CCC(C2)N3c2ccc(C(=O)NCc3ccccc3)cn2)c1C (stereo not given) | 4% | – | 43.2 min | 38.1 mL/min/kg | – | 50.5 ×10⁻⁶ cm/s | 0.9 µM·kg·h/mg | – | metabolised at 0.5 h, 15 µM [13]: 64%; metabolised at 0.5 h, 15 µM [21]: 79%; solubility kinetic [14]: 4.1 µM (≈ 1.99 µg/mL) |
| Cc1cc(C(N)=O)c(NC(C)C)cc1C(=O)NC1CC2CCC(C1)N2c1ccc(C(=O)C2CC2)cn1 (stereo not given) | 33% | 21 nM | 90 min | 63.2 mL/min/kg | 130 nM | 20.6 ×10⁻⁶ cm/s | 0.57 µM·kg·h/mg | – | – |
| CCC(CC)Nc1cc(C(=O)NC2CC3CCC(C2)N3c2ccc(C(=O)C3CC3)cn2)ccc1C(N)=O (stereo not given) | – | 86 nM | – | – | 117 nM | 14.1 ×10⁻⁶ cm/s | – | – | half-life [8]: 30 min; bioavailability [9]: 11%; clearance [10]: 39.7 mL/min/kg; AUC/dose (Rattus norvegicus [11]): 0.78 µM·kg·h/mg |
| COc1cccc(C(=O)NC2CC3CCC(C2)N3c2ccc(C(=O)N[C@@H](C)c3ccc(N4CCN(C)CC4)cc3)cn2)c1C (stereo not given in full) | – | 200 nM | – | – | – | 6.3 ×10⁻⁶ cm/s | – | 374 nM | clearance [15]: 34.3 mL/min/kg; bioavailability [16]: 30%; half-life [17]: 384 min; AUC/dose (Rattus norvegicus [18]): 0.71 µM·kg·h/mg; metabolised at 0.5 h, 15 µM [13]: 37%; solubility kinetic [14]: 447 µM (≈ 267 µg/mL) |
| CCC(CC)Nc1cc(C(=O)NC2CC3CCC(C2)N3c2ccc(C(C)=O)cn2)ccc1C(N)=O (stereo not given) | – | 38 nM | – | – | 52 nM | 67.6 ×10⁻⁶ cm/s | – | – | half-life [8]: 30 min; bioavailability [9]: 5%; clearance [10]: 28.5 mL/min/kg; AUC/dose (Rattus norvegicus [11]): 1.22 µM·kg·h/mg |
